The values that follow are results of earlier work, collected in patent US11737976B2, “Drug delivery means” (priority 2006, dated 2023).

Series [1] concerns endothelial and smooth muscle cells.
The subject of series [2] is arterial smooth muscle cell.
Series [3] concerns oxidized cholesterols present in the plasma. The following applies: increased concentrations of vitamin E in the blood; some oxidized cholesterols, not all; not reversed once packed into plaques.

Read-outs that look alike come from different tables or passages of the source.

Regarding `CC(C)CCC[C@@H](C)[C@H]1CC[C@H]2[C@@H]3C(=O)C=C4C[C@@H](O)CC[C@]4(C)[C@H]3CC[C@]12C` [7-Keto, 5-Cholesten-3β-ol-7-one], the “cytotoxicity relative to the other oxidized cholesterols studied” value in the series on cells is “most cytotoxic”. In the series with fibroblasts, the apoptosis in fibroblasts result is given as “did not cause apoptosis”. Further, in series [1], the induction of apoptosis entry was “able to induce apoptosis”.

As to `CC(C)CCC[C@@H](C)[C@H]1CC[C@H]2[C@@H]3[C@@H](O)C=C4C[C@@H](O)CC[C@]4(C)[C@H]3CC[C@]12C` [7B, 7β-hydroxycholesterol], the apoptosis in fibroblasts result in the series with fibroblasts (necrosis occurred instead) is on record as “did not cause apoptosis”. In series [1] (cells of the vascular wall), the induction of apoptosis result was “able to induce apoptosis”.

As for `C[C@H](CCCC(C)(C)O)[C@H]1CC[C@H]2[C@@H]3CC=C4C[C@@H](O)CC[C@]4(C)[C@H]3CC[C@]12C` [25OH, 25-hydroxycholesterol], the “changes in the arterial smooth muscle cell” value in series [2] is on record as “causes changes”.

As to vitamin E, the “lowering the amount of oxidized cholesterols in plasma” value in series [3] is “effective in lowering the amount of some oxidized cholesterols”.
